{
  "source": "patent US20200155687A1",
  "about": "“METHODS OF TREATMENT USING AN A[…]” (Shire Pharmaceuticals Inc., priority 2017, published 2020)",
  "key": {"α2-adrenergic receptor [1]": {"system": "α2-adrenergic receptor", "assay": "general side-effect profile panel (receptors, transporters, ion channels, enzymes)", "format": "binding", "procedure": "(§1) In a general side-effect profile panel using a wide range of receptors, transporters, ion channels, enzymes and other biological targets that could directly or indirectly influence dopaminergic or noradrenergic neurotransmission in the brain, initial results indicated some 1-homoarginine-d-amphetamine dihydrochloride activity at the α2-adrenergic receptor. However, after completion of a confirmatory half maximal inhibitory concentration (IC50) assay, it was determined that it is unlikely that 1-homoarginine-d-amphetamine dihydrochloride would cause any side-effects related to any of the common enzymes/receptors."}, "α2-adrenergic receptor [2]": {"system": "α2-adrenergic receptor", "assay": "confirmatory half maximal inhibitory concentration (IC50) assay", "format": "binding", "details": "after completion of confirmatory IC50 assay", "procedure": "as §1"}, "[3]": {"target": "human recombinant norepinephrine transporter (Homo sapiens, UniProt P23975)", "sequence (P23975 whole entry)": "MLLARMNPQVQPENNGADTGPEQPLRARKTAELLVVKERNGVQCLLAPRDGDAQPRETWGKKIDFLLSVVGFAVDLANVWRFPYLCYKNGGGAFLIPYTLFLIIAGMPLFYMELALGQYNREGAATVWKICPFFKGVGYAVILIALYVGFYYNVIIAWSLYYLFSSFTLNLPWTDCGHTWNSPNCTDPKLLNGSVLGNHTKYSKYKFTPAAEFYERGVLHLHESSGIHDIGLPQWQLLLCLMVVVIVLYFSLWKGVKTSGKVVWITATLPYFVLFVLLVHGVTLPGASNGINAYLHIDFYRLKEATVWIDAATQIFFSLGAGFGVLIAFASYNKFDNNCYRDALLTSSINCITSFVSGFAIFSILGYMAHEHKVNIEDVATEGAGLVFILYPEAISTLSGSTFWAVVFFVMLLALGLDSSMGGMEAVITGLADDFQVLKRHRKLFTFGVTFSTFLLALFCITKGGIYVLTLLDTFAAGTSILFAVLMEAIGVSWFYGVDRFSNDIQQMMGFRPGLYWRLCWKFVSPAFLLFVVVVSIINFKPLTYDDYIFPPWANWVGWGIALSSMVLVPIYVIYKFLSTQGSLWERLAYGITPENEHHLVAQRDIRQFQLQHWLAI", "assay": "in vitro radioligand binding study, norepinephrine transporter", "details": "intact prodrug, up to 10 μM", "excerpt": "(§2) Therefore, there is no direct interaction by 1-homoarginine-d-amphetamine dihydrochloride with primary targets critical for the pharmacological effects of d-amphetamine."}, "[4]": {"target": "human recombinant dopamine transporter (Homo sapiens, UniProt Q01959)", "sequence (Q01959 whole entry)": "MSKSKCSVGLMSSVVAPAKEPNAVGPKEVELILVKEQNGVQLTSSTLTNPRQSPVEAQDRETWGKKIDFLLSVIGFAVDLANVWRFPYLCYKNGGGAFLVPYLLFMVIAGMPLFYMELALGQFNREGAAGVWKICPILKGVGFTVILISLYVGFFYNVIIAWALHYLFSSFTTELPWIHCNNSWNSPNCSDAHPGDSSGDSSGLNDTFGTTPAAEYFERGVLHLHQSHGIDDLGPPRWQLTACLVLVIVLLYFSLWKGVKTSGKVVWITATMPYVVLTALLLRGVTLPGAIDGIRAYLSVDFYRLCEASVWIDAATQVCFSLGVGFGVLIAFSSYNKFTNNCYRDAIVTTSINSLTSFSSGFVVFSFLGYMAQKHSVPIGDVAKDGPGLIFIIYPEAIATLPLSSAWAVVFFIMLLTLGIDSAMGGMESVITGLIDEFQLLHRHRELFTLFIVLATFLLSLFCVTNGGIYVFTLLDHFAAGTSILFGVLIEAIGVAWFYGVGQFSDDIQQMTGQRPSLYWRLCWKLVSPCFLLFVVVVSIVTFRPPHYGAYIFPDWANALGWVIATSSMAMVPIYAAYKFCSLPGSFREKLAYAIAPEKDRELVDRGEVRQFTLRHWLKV", "assay": "in vitro radioligand binding study, dopamine transporter", "details": "intact prodrug, up to 10 μM", "excerpt": "as §2"}, "rats": {"system": "rats", "assay": "motor activity in rats after PO, IV or IN administration", "format": "in vivo", "details": "rat; for increase in activity: IV; for activity levels compared to controls: single IN dose", "procedure": "The pharmacodynamic properties of 1-homoarginine-d-amphetamine dihydrochloride in rats were evaluated and compared to lisdexamfetamine dimesylate and vehicle control after oral (PO), intravenous (IV) and intranasal (IN) administration.\nThe activity levels of rats after a single IN dose of 1-homoarginine-d-amphetamine dihydrochloride (5.25 mg/kg) was not increased when compared to controls."}},
  "data": [
    {"molecule": "C[C@@H](Cc1ccccc1)NC(=O)[C@@H](N)CCCCNC(=N)N.Cl", "note": "[1-homoarginine-d-amphetamine dihydrochloride]", "values": [
      {"measurement": "activity at the α2-adrenergic receptor (initial results)", "setting": "α2-adrenergic receptor [1]", "value": "some"},
      {"measurement": "likelihood of side-effects related to any of the common enzymes/receptors", "setting": "α2-adrenergic receptor [2]", "value": "unlikely"},
      {"measurement": "activity at the norepinephrine transporter site", "setting": "[3]", "value": "no significant activity"},
      {"measurement": "activity at the dopamine transporter site", "setting": "[4]", "value": "no significant activity"},
      {"measurement": "increase in activity", "setting": "rats; 5.25 mg/kg", "value": "approximately 15%"},
      {"measurement": "motor activity compared to the vehicle control group", "setting": "rats; PO, 4.37 mg/kg", "value": "induced an increase in motor activity"},
      {"measurement": "activity levels versus lisdexamfetamine (4.21 mg/kg) comparator group", "setting": "rats; PO, 4.37 mg/kg, initial three hours of the study", "value": "in general lower"},
      {"measurement": "activity levels compared to controls", "setting": "rats; 5.25 mg/kg", "value": "not increased"}
    ]},
    {"molecule": "lisdexamfetamine dimesylate [reference compound]", "values": [
      {"measurement": "increase in activity", "setting": "rats; 5.05 mg/kg", "value": 60, "unit": "%"},
      {"measurement": "activity levels compared to controls", "setting": "rats; 5.05 mg/kg", "value": "A similar result"}
    ]}
  ]
}
